Reference: EPA's ToxRefDB 2

Experiments:
rat [1] = settings: Developmental neurotoxicity study; sprague dawley; Oral; Gavage/Intubation; dose end: 42 PND; group: cannot be grouped; developmental / offspring survival late / [other] / [other]
rat [2] = settings: Subchronic oral toxicity in rodents, fischer, Feed, dose end: 13 week
mouse [3] = settings: Subchronic oral toxicity in rodents, b6c3f1, Feed, dose end: 13 week, group: systemic
rat [4] = settings: Peri- and post-natal toxicity study (Segment III), sprague dawley, Oral, Gavage/Intubation, dose end: 43 PND
rat [5] = settings: Combined chronic toxicity/carcinogenicity, sprague dawley, Oral, Feed, dose end: 2 year, group: systemic
rat [6] = settings: Prenatal developmental toxicity study, wistar, Oral, Feed, dose end: 21 GD
rat [7] = settings: Chronic toxicity, sprague dawley, Oral, Feed, dose end: 2 year, group: systemic
rat [8] = settings: Prenatal developmental toxicity study, wistar, Oral, Gavage/Intubation, dose end: 20 GD
rat [9] = settings: Prenatal developmental toxicity study, wistar, Oral, Gavage/Intubation, dose end: 20 GD; remark: listed apart in the source
rabbit [10] = settings: Prenatal developmental toxicity study, himalayan, Oral, Gavage/Intubation, dose end: 18 GD
rat [11] = settings: Prenatal developmental toxicity study, wistar, Oral, Gavage/Intubation, dose end: 19 GD
rat [12] = settings: Multigenerational reproductive toxicity study, wistar, Oral, Gavage/Intubation, dose end: 2 generation
rat [13] = settings: Prenatal developmental toxicity study; wistar; Dermal; Topical; dose end: 15 GD; group: developmental; developmental / developmental malformation / bone / supernumerary
rat [14] = settings: Sub-acute repeat dose toxicity, sprague dawley, Oral, Gavage/Intubation, dose end: 1 month, group: systemic
dog [15] = settings: Sub-acute repeat dose toxicity, beagle, Oral, Gavage/Intubation, dose end: 4 week, group: systemic
mouse [16] = settings: Developmental neurotoxicity study; cd1; Injection; Subcutaneous; dose end: 42 PND; group: cannot be grouped; systemic / in life observation / body weight / offspring (pup) weight
dog [17] = settings: Chronic toxicity, beagle, Oral, Feed, dose end: 52 week
mouse [18] = settings: Combined chronic toxicity/carcinogenicity; cd1; Oral; Feed; dose end: 95 week; group: systemic; systemic / in life observation / body weight / body weight gain
rabbit [19] = settings: Prenatal developmental toxicity study, new zealand white, Oral, Gavage/Intubation, dose end: 19 GD
rat [20] = settings: Combined chronic toxicity/carcinogenicity, sprague dawley, Oral, Feed, dose end: 2 year
[21] = group: maternal, reproductive / reproductive performance / estrous cycle / abnormal
[22] = group: systemic, systemic / hematology / mean corpuscular (cell) volume (mcv) / mean corpuscular (cell) volume (mcv) + systemic / hematology / mean …
[23] = group: systemic, systemic / pathology microscopic / kidney / nephropathy
[24] = systemic / in life observation / body weight / body weight gain + systemic / in life observation / food consumption / food consumption + …
[25] = systemic / organ weight / liver / relative to body weight
[26] = group: developmental, developmental / developmental landmark / vaginal opening / vaginal opening
[27] = group: maternal, reproductive / reproductive performance / estrous cycle / [other] + reproductive / reproductive performance / estrous cycle / abnormal
[28] = group: parental, systemic / organ weight / adrenal gland / absolute
[29] = systemic / in life observation / body weight / body weight
[30] = systemic / pathology microscopic / preputial gland / atrophy
[31] = group: developmental, systemic / in life observation / body weight / fetal weight
[32] = group: maternal, reproductive / reproductive performance / postimplantation loss / postimplantation loss + reproductive / reproductive performance / …
[33] = systemic / pathology microscopic / pituitary gland / adenoma/carcinoma combined + systemic / in life observation / body weight / body weight…
[34] = group: developmental, developmental / developmental malformation / great vessels / [other] + developmental / developmental malformation / bone / fused + …
[35] = group: maternal, reproductive / offspring survival early / litter viability other / total litter loss + systemic / in life observation / body weight / body …
[36] = group: developmental, developmental / developmental malformation / bone / supernumerary
[37] = group: maternal, systemic / in life observation / clinical signs / abnormal respiratory sounds + systemic / in life observation / clinical signs / altered …
[38] = group: developmental, developmental / developmental malformation / bone / arthrogryposis + developmental / developmental malformation / bone / malformation, total
[39] = group: maternal, reproductive / reproductive performance / resorptions / resorptions + systemic / in life observation / body weight / body weight gain + …
[40] = group: developmental, developmental / developmental malformation / bone / delayed ossification + developmental / developmental malformation / bone / supernumerary…
[41] = group: maternal, systemic / in life observation / body weight / body weight gain + systemic / in life observation / food consumption / food consumption
[42] = group: maternal, systemic / in life observation / body weight / body weight gain + systemic / in life observation / food consumption / food consumption + …
[43] = group: offspring, systemic / in life observation / body weight / offspring (pup) weight + systemic / organ weight / spleen / absolute + systemic / organ …
[44] = group: parental, systemic / organ weight / liver / absolute + systemic / organ weight / thymus / absolute + systemic / organ weight / thymus / relative to …
[45] = group: reproductive, reproductive / reproductive performance / estrous cycle / length + reproductive / reproductive performance / estrous cycle / periodicity + …
[46] = systemic / in life observation / body weight / body weight gain + systemic / in life observation / food consumption / food consumption
[47] = systemic / clinical chemistry / alanine aminotransferase (alt/sgpt) / alanine aminotransferase (alt/sgpt) + systemic / hematology / blood …
[48] = group: cholinesterase, cholinesterase / cholinesterase / cholinesterase / cholinesterase (che) + cholinesterase / cholinesterase / cholinesterase / plasma …
[49] = group: systemic, systemic / in life observation / clinical signs / [other] + systemic / in life observation / clinical signs / labored respiration + systemic…
[50] = group: developmental, developmental / developmental landmark / incisor eruption / incisor eruption + developmental / developmental malformation / bone / absent + …
[51] = group: maternal, systemic / in life observation / body weight / body weight gain + systemic / in life observation / food consumption / food efficiency
[52] = group: maternal, systemic / in life observation / body weight / body weight gain + systemic / in life observation / food consumption / food efficiency + …
[53] = group: cholinesterase, cholinesterase / cholinesterase / cholinesterase / brain cholinesterase (che)
[54] = group: cholinesterase, cholinesterase / cholinesterase / cholinesterase / brain cholinesterase (che) + cholinesterase / cholinesterase / cholinesterase / plasma …
[55] = group: systemic, systemic / in life observation / body weight / body weight + systemic / in life observation / body weight / body weight gain

## O=C([O-])c1ccccc1O.[Na+] [Sodium salicylate]
Rat [1]
  LEL: 12.5 mg/kg/day
  LOAEL: > 150 mg/kg/day
  NEL: 4.2 mg/kg/day
  NOAEL: ≥ 150 mg/kg/day

## Cc1cccc([N+](=O)[O-])c1 [3-Nitrotoluene]
Rat [2]; [21]
  LEL: 336 mg/kg/day
  LOAEL: > 638 mg/kg/day
  NEL: 172 mg/kg/day
  NOAEL: ≥ 638 mg/kg/day
Rat [2]; [22]
  LOAEL: 336 mg/kg/day
  NOAEL: 172 mg/kg/day
Rat [2]; [23]
  LEL: 46 mg/kg/day
  NEL: < 46 mg/kg/day
Mouse [3]; systemic / in life observation / body weight / body weight gain
  LOAEL: 743 mg/kg/day
Mouse [3]; [24]
  NOAEL: 398 mg/kg/day
Mouse [3]; [25]
  LEL: 114 mg/kg/day
  NEL: < 114 mg/kg/day

## C#C[C@]1(O)CC[C@H]2[C@@H]3CCc4cc(O)ccc4[C@H]3CC[C@@]21C [17alpha-Ethinylestradiol]
Rat [4]; [26]
  LEL: 0.005 mg/kg/day
  LOAEL: > 0.005 mg/kg/day
  NEL: 0.0025 mg/kg/day
  NOAEL: ≥ 0.005 mg/kg/day
Rat [4]; [27]
  LEL: 0.005 mg/kg/day
  LOAEL: > 0.005 mg/kg/day
  NEL: 0.0025 mg/kg/day
  NOAEL: ≥ 0.005 mg/kg/day
Rat [4]; [28]
  LEL: 0.0025 mg/kg/day
  LOAEL: > 0.005 mg/kg/day
  NEL: < 0.0025 mg/kg/day
  NOAEL: ≥ 0.005 mg/kg/day
Rat [5]; [29]
  LEL: 0.00012 mg/kg/day
  NEL: < 0.00012 mg/kg/day
Rat [5]; [30]
  LOAEL: 0.00021 mg/kg/day
  NOAEL: < 0.00021 mg/kg/day

## O=c1c(-c2ccc(O)cc2)coc2cc(O)cc(O)c12 [Genistein]
Rat [6]; [31]
  LEL: 500 mg/kg/day
  LOAEL: > 500 mg/kg/day
  NEL: 100 mg/kg/day
  NOAEL: ≥ 500 mg/kg/day
Rat [6]; [32]
  LEL: 500 mg/kg/day
  LOAEL: > 500 mg/kg/day
  NEL: 100 mg/kg/day
  NOAEL: ≥ 500 mg/kg/day
Rat [7]; systemic / organ weight / pituitary gland / absolute + systemic / organ weight / pituitary gland / relative to body weight
  NEL: 0.25 mg/kg/day
Rat [7]; systemic / organ weight / pituitary gland / absolute + systemic / organ weight / pituitary gland / relative to body weight + systemic / …
  LEL: 5 mg/kg/day
Rat [7]; [33]
  LOAEL: > 25 mg/kg/day
  NOAEL: ≥ 25 mg/kg/day
Rat [8]; group: developmental, developmental / developmental malformation / great vessels / [other]
  LEL: 150 mg/kg/day
Rat [8]; [34]
  LOAEL: > 1000 mg/kg/day
  NEL: 20 mg/kg/day
  NOAEL: ≥ 1000 mg/kg/day
Rat [8]; [35]
  LEL: 1000 mg/kg/day
  LOAEL: > 1000 mg/kg/day
  NEL: 150 mg/kg/day
  NOAEL: ≥ 1000 mg/kg/day

## OC(Cc1ccccc1Cl)(Cn1[nH]cnc1=S)C1(Cl)CC1 (configuration not stated) [Prothioconazole]
Rat [9]; [36]
  LEL: 30 mg/kg/day
  LOAEL: 30 mg/kg/day
  NEL: < 30 mg/kg/day
  NOAEL: < 30 mg/kg/day
Rat [9]; [37]
  LEL: 750 mg/kg/day
  LOAEL: 750 mg/kg/day
  NEL: 150 mg/kg/day
  NOAEL: 150 mg/kg/day
Rabbit [10]; [38]
  LEL: 10 mg/kg/day
  LOAEL: 10 mg/kg/day
  NEL: 2 mg/kg/day
  NOAEL: 2 mg/kg/day
Rabbit [10]; [39]
  LEL: 50 mg/kg/day
  LOAEL: 50 mg/kg/day
  NEL: 10 mg/kg/day
  NOAEL: 10 mg/kg/day
Rat [11]; [40]
  LEL: 1000 mg/kg/day
  LOAEL: > 1000 mg/kg/day
  NEL: 200 mg/kg/day
  NOAEL: ≥ 1000 mg/kg/day
Rat [11]; [41]
  LEL: 200 mg/kg/day
  LOAEL: 200 mg/kg/day
Rat [11]; [42]
  NEL: 40 mg/kg/day
  NOAEL: 40 mg/kg/day
Rat [12]; [43]
  LEL: 750 mg/kg/day
  LOAEL: 750 mg/kg/day
  NEL: 100 mg/kg/day
  NOAEL: 100 mg/kg/day
Rat [12]; [44]
  LOAEL: 750 mg/kg/day
  NEL: 10 mg/kg/day
  NOAEL: 100 mg/kg/day
Rat [12]; group: parental, systemic / organ weight / thymus / absolute + systemic / organ weight / thymus / relative to body weight + systemic / organ weight / seminal…
  LEL: 100 mg/kg/day
Rat [12]; [45]
  LEL: 750 mg/kg/day
  LOAEL: 750 mg/kg/day
  NEL: 100 mg/kg/day
  NOAEL: 100 mg/kg/day
Rat [13]
  LEL: 100 mg/kg/day
  LOAEL: 100 mg/kg/day
  NEL: < 100 mg/kg/day
  NOAEL: < 100 mg/kg/day

## CC(=O)O.COCCOc1cc2cc(C(=O)NC3CCN(C(C)C)CC3)n(CC(=O)Nc3ccc(Cl)cn3)c2cn1
Rat [14]; [46]
  LEL: 10 mg/kg/day
  NEL: < 10 mg/kg/day
Rat [14]; [24]
  LOAEL: 30 mg/kg/day
  NOAEL: 10 mg/kg/day
Dog [15]; [47]
  LOAEL: 75 mg/kg/day
  NEL: 3 mg/kg/day
  NOAEL: 15 mg/kg/day
Dog [15]; systemic / organ weight / liver / absolute + systemic / organ weight / liver / relative to body weight
  LEL: 15 mg/kg/day

## O=P1(N(CCCl)CCCl)NCCCO1 (configuration not stated) [Cyclophosphamide]
Mouse [16]
  LEL: 20 mg/kg/day
  LOAEL: > 45 mg/kg/day
  NEL: < 20 mg/kg/day
  NOAEL: ≥ 45 mg/kg/day

## CNC(=O)Oc1cccc(N=CN(C)C)c1.Cl [Formetanate hydrochloride]
Dog [17]; [48]
  LEL: 1.74 mg/kg/day
  LOAEL: 1.74 mg/kg/day
  NEL: 0.37 mg/kg/day
  NOAEL: 0.37 mg/kg/day
Dog [17]; [49]
  LEL: 1.74 mg/kg/day
  LOAEL: 1.74 mg/kg/day
  NEL: 0.37 mg/kg/day
  NOAEL: 0.37 mg/kg/day
Mouse [18]
  LEL: 70 mg/kg/day
  LOAEL: 70 mg/kg/day
  NEL: 7 mg/kg/day
  NOAEL: 7 mg/kg/day
Rabbit [19]; [50]
  LEL: 15 mg/kg/day
  LOAEL: 15 mg/kg/day
  NEL: 5 mg/kg/day
  NOAEL: 5 mg/kg/day
Rabbit [19]; [51]
  LEL: 15 mg/kg/day
  LOAEL: 15 mg/kg/day
Rabbit [19]; [52]
  NEL: 5 mg/kg/day
  NOAEL: 5 mg/kg/day
Rat [20]; [53]
  LEL: 0.45 mg/kg/day
  NEL: < 0.45 mg/kg/day
Rat [20]; [54]
  LOAEL: > 12 mg/kg/day
  NOAEL: ≥ 12 mg/kg/day
Rat [20]; group: systemic, systemic / in life observation / body weight / body weight
  LOAEL: 12 mg/kg/day
Rat [20]; [55]
  LEL: 12 mg/kg/day
  NEL: 2.3 mg/kg/day
  NOAEL: 2.3 mg/kg/day
